Data reported in ChEMBL document CHEMBL5316313, “Discovery of Novel 3-Phenylpiperidine Derivatives Targeting the β-Catenin/B-Cell Lymphoma 9 Interaction as a Single Agent and in Combination with the Anti-PD-1 Antibody for the Treatment of Colorectal Cancer” (J Med Chem, 2023).
Active and inactive are the calls of the source. The rule behind the calls is not given here.

What was measured:
[1] = Toxicity in BALB/c mouse xenografted with mouse CT26 cells assessed as body weight loss at 30 mg/kg, ip QD and measured upto 9 days; assay type: organism-based; conditions: in vivo, 216 h, time < 9 day
[2] = Microsomal stability in human liver microsomes assessed as half life at […] and measured upto 60 mins by LC-MS/MS analysis; assay type: ADME, Microsome
HCT-116 [3] = experiment: Induction of apoptosis in Wnt-dependent human HCT-116 cells assessed as necrotic cells at 10 uM incubated for 24 hrs by Annexin V-Alexa Fluor 647/PI staining based flow cytomtery (Rvb=1.47%); assay type: functional
[4] = Toxicity in BALB/c mouse xenografted with mouse CT26 cells assessed as pathological changes in lung at 30 mg/kg, ip QD by hematoxylin and eosin staining based microscopic analysis; assay type: organism-based; conditions: in vivo
[5] = Tmax in Sprague-Dawley rat at 21 mg/kg, ip and measured upto 24 hrs by LC-MS analysis; assay type: ADME, organism-based; conditions: in vivo
HEK293 [6] = experiment: Induction of apoptosis in Wnt-independent human HEK293 cells assessed as early apoptotic cells at 10 uM incubated for 24 hrs by Annexin V-Alexa Fluor 647/PI staining based flow cytomtery (Rvb=17.4%); assay type: functional
CT26 [7] = experiment: Antitumor activity in mouse CT26 cells xenografted in BALB/c mouse assessed as increase in IFNG mRNA expression level in tumor at 30 mg/kg, ip QD by qRT-PCR analysis; assay type: functional, organism-based
HCT-116 [8] = experiment: Cytotoxicity against Wnt-dependent human HCT-116 cells assessed as reduction in cell viability at 10 to 20 uM by LDH release assay; assay type: toxicity, cell-based; conditions: hct-116, 20 µM, dose 10-20 µM
CT26 [9] = experiment: Induction of apoptosis in Wnt-dependent mouse CT26 cells assessed as late apoptotic cells at 20 uM incubated for 24 hrs by Annexin V-Alexa Fluor 647/PI staining based flow cytomtery (Rvb=9.96%); assay type: functional
HEK293 [10] = experiment: Induction of apoptosis in Wnt-independent human HEK293 cells assessed as viable cells at 10 uM incubated for 24 hrs by Annexin V-Alexa Fluor 647/PI staining based flow cytomtery (Rvb=70.5%); assay type: functional; conditions: read-out: Activity
[11] = target: T1, beta-catenin-B-cell lymphoma 9 protein complex (Homo sapiens, UniProt P35222); experiment: Inhibition of beta-catenin/BCL9 protein-protein interaction in Wnt-dependent human HCT-116 cells assessed as reduction in Axin2 expression level by qRT-PCR assay; assay type: cell-based
T1 sequence (P35222 whole entry): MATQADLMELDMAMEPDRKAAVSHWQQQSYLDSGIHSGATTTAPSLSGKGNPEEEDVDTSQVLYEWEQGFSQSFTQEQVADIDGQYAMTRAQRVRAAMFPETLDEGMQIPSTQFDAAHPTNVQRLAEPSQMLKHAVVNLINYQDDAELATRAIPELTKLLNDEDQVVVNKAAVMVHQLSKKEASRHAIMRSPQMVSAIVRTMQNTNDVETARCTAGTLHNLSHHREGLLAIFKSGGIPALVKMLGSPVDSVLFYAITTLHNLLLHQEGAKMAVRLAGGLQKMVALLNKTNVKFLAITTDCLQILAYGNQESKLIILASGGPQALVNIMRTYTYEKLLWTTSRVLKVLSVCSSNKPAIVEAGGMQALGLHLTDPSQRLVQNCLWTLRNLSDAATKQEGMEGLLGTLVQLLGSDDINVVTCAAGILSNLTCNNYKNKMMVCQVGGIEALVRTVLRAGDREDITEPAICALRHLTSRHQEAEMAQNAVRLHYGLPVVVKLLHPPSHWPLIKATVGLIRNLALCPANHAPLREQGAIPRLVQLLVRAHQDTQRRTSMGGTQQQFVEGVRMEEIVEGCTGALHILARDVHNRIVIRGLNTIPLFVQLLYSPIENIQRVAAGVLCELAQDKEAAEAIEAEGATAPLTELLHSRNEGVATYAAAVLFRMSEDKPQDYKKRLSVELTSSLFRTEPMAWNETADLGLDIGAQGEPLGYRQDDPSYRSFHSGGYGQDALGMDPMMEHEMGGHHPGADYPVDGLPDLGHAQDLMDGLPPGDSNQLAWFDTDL
T1 sequence (O00512 whole entry): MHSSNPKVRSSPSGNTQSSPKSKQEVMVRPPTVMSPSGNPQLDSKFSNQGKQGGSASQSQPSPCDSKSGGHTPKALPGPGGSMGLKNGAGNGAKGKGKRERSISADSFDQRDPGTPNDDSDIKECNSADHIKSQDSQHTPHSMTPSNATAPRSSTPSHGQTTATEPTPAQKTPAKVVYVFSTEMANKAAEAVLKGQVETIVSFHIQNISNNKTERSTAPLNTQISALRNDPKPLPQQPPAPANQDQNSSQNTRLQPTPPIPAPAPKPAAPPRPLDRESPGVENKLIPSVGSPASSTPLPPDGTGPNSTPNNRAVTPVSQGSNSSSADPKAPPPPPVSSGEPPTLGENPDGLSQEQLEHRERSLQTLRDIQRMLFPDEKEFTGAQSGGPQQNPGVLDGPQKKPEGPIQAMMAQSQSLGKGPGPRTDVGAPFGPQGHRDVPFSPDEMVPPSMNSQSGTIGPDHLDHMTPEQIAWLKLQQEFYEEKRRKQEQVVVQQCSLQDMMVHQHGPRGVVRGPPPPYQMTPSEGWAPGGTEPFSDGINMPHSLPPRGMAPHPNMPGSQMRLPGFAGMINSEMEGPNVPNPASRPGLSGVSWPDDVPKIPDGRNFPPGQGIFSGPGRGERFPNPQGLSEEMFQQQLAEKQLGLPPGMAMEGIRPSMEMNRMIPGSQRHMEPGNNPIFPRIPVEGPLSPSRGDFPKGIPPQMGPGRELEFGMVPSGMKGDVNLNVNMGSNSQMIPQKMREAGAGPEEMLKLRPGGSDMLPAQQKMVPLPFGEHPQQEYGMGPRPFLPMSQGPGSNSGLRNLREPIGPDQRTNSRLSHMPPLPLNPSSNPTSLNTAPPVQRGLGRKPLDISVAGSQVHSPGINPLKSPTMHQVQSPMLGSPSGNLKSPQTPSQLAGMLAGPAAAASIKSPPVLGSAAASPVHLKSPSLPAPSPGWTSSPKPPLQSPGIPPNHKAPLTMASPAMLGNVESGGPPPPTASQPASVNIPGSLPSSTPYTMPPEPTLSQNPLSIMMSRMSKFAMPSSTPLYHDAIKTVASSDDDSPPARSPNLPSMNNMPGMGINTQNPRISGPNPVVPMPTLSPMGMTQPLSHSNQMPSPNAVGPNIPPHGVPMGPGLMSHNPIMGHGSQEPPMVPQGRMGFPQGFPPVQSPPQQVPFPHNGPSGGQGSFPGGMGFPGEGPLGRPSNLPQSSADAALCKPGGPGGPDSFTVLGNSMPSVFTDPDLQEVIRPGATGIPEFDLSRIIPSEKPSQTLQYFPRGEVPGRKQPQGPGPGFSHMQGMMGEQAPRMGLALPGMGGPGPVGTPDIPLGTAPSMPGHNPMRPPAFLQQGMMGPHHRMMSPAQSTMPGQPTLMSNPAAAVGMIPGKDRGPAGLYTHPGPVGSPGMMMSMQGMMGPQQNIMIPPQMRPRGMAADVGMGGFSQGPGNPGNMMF

CC(C)c1ccc(-c2cccc(S(=O)(=O)N3CCCC(c4cccc(OC(C)(C)C(=O)NS(=O)(=O)c5ccc(C(F)(F)F)cc5)c4)C3)c2)cc1 (stereo unspecified)
Activity [1]: Non-Toxic
half-life [2]: 32.1 min
Activity (HCT-116 [3]): 2%
Activity [4]: Non-Toxic
Tmax [5]: 30 min
Activity (HEK293 [6]): 12.1%
Activity (CT26 [7]): Active
Activity (HCT-116 [8]): Non-Toxic
Activity (CT26 [9]): 52.6%
viability at 10 µM (HEK293 [10]): 70.8%

O=C1[C@H](Cc2ccc(O)cc2)N2C(=O)CCN(C(=O)NCc3ccccc3)[C@H]2CN1Cc1cccc2ccccc12
IC50 [11]: 2.69 µM
